Data: patent US7553642B2, “Branched neutral amino acid transporters acting as single molecule” (Human Cell Systems, Inc., priority 2003, dated 2009)

How the values were obtained:
Assay type in all cases: cell-based
human LAT3 [1] = biological target: T1, human LAT3 (Homo sapiens, UniProt O75387); test: Uptake of radiolabeled amino acids by Xenopus oocytes injected with human LAT3 cRNA
T1 construct: An expression plasmid vector pSPORT1 containing cDNA of human LAT3 was cleaved by a restriction enzyme NotI, and cRNA; expressed in transfected cells; host or cells: Xenopus laevis oocytes injected with cRNA
T1 sequence (O75387 1-559): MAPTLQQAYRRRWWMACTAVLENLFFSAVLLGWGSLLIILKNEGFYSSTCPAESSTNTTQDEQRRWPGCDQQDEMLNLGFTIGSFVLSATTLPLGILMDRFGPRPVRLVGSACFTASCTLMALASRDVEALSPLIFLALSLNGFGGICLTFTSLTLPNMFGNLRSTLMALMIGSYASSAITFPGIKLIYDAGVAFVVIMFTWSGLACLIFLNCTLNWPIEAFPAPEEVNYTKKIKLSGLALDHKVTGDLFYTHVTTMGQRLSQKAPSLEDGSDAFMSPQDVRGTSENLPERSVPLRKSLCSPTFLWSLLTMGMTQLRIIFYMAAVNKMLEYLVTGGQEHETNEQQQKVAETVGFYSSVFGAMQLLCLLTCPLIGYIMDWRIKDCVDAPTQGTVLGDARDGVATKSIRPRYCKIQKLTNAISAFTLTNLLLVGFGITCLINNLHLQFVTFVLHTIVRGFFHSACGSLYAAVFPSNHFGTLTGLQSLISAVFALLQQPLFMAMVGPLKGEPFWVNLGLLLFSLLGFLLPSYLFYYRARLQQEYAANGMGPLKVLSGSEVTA
Procedure: The substrate uptake by the injected oocytes using leucine as a substrate was carried out according to the method described by Kanai et al. (Kanai and Hediger, Nature, Vol. 360, 467-471 (1992)), as follows. The oocytes was cultured for 30 minutes in the Na^+-free uptake solution (100 mM of choline chloride, 2 mM of potassium chloride, 1.8 mM of calcium chloride, 1 mM of magnesium chloride, 5 mM of HEPES, pH 7.4) using ^14C-leucine (100 μM) as a substrate, and uptake rate of the substrate was measured by counting radioactivity in the cell.
The oocytes was injected with 25 ng of human LAT3 gene cRNA to be expressed thereby, and cultured for 3 days.
The experiment of the leucine uptake was carried out as follows according to the above described method in Example 1 (1). That is, the oocytes injected with the cRNA of the human LAT3 gene or water as a control were cultured for 10 minutes in Na^+-free uptake solution containing ^14C-leucine (100 μM) (refer to Example 1 (1)), and measured uptake of radioactivity into the cells.
The leucine uptake was conducted at the leucin concentrations of 1, 3, 10, 30, 60, 100, 200, 400, 1000, 2000 and 3000 μM using the oocytes injected with cRNA of the human LAT3 gene according to the above-described method in Example 3 (1). […] In addition, it was clarified that the leucine transport mediated by LAT3 is composed of high affinity component and low affinity component (FIG. 6, inserted figure).
An uptake experiment of various amino acids and amino acid analogs was carried out using the oocytes injected with cRNA of the human LAT3 gene according to the above-described method in Example 3 (1), provided that various radiolabeled amino acids were utilized in place of the ^14C-leucine.

human LAT3 [2] = biological target: T1, human LAT3; test: 14C-leucine efflux from preloaded oocytes injected with human LAT3 cRNA; settings: preloaded 100 nl of 400 μM 14C-leucine; absence of extracellular leucine; Na+-free; room temperature
Procedure: The oocytes injected with cRNA of the human LAT3 gene was injected with 100 nl of 400 μM ^14C-leucine (2 nCi). After washing the oocytes with the leucine-free and Na^+-free uptake solution which was previously cooled with ice, the oocytes were transferred to the Na^+-free uptake solution with or without leucine (1 mM) at room temperature (18 to 22° C.), then efflux of ^14C-leucine was measured. As a control, 100 nl of 400 μM ^14C-leucine (2 nCi) was injected into the oocytes injected with water instead of cRNA of the human LAT3 gene, and the extracellular efflux of ^14C-leucine was measured by the same procedures as described above.

mouse LAT3 = biological target: T2, mouse LAT3 (Mus musculus, UniProt Q8BSM7); test: Leucine uptake by oocytes injected with mouse LAT3 cRNA; settings: 14C-L-leucine, method of Example 3 (1)
T2 construct: expressed in transfected cells; host or cells: Xenopus laevis oocytes injected with cRNA (IMAGE clone 4910149)
Procedure: The cDNA of mouse LAT3 obtained by Example 2 was cleaved at NotI site, and cRNA was prepared using SP6 RNA polymerase. The cRNA of the mouse LAT3 gene was expressed in the oocytes and the ^14C-L-leucine uptake was measured.
The oocytes was injected with 25 ng of cRNA of the mouse LAT3 gene to be expressed thereby, and cultured for 3 days. An experiment of the leucine uptake by the oocytes injected with cRNA of the mouse LAT3 gene was carried out according to the method in Example 3 (1).

mouse LAT4 = biological target: T3, mouse LAT4 (Mus musculus, UniProt Q8CGA3, K402E/P237S); test: Uptake of radiolabeled amino acids by Xenopus oocytes injected with mouse LAT4 cRNA
T3 construct: An expression plasmid vector pcDNA 3.1(+) containing cDNA of mouse LAT4 was cleaved by a restriction enzyme XbaI; expressed in transfected cells; host or cells: Xenopus laevis oocytes injected with cRNA (from pcDNA3.1(+), IMAGE clone 2235970)
Procedure: The oocytes was injected with 25 ng of cRNA of the mouse LAT4 gene to be expressed thereby, and cultured for 3 days.
An experiment of leucine uptake was carried out as follows according to the above-described method in Example 3 (1). That is, the oocytes injected with cRNA of the mouse LAT4 gene or water as a control were cultured for 10 minutes in the Na^+-free uptake solution containing […] (100 μM) (refer to Example 3 (1)), and measured the uptake of radioactivity into the cells.
The leucine uptake was conducted at the leucin concentrations of 0.01, 0.03, 0.1, 0.3, 1, 3 and 10 mM, using the oocytes injected with cRNA of the mouse LAT4 gene according to the above-described method in Example 3 (1). […] In addition, it was clarified that the leucine transport mediated by LAT4 is composed of a high affinity component and a low affinity component, just like the leucin uptake mediated by LAT3.
An uptake experiment of various amino acids and amino acid analogs was carried out using the oocytes injected with cRNA of the mouse LAT4 gene according to the above-described method in Example 3 (1). In this regard, in place of ^14C-leucine, various radiolabeled amino acids were utilized.

human LAT4 = biological target: T4, human LAT4 (Homo sapiens, UniProt Q8N370); test: Leucine uptake by oocytes injected with human LAT4 cRNA; settings: 14C-L-leucine, method of Example 3 (1)
T4 construct: expressed in transfected cells; host or cells: Xenopus laevis oocytes injected with cRNA (IMAGE clone 2783525)
Procedure: The cDNA of human LAT4 gene obtained by Example 4 was cleaved at XhoI site, and the cRNA was prepared using T3 RNA polymerase. The cRNA of the human LAT4 gene was expressed in the oocytes and the ^14C-L-leucine uptake was measured.
The oocytes was injected with 25 ng of cRNA of the human LAT4 gene, and cultured for […]. Experiment of the leucine uptake by the oocytes injected with cRNA of the human LAT4 gene was carried out according to the method of Example 3 (1).

[3] = 14C-leucine 100 μM, Na+-free uptake solution, 10 minutes

T3 sequence (Q8CGA3 whole entry P237S/K402E): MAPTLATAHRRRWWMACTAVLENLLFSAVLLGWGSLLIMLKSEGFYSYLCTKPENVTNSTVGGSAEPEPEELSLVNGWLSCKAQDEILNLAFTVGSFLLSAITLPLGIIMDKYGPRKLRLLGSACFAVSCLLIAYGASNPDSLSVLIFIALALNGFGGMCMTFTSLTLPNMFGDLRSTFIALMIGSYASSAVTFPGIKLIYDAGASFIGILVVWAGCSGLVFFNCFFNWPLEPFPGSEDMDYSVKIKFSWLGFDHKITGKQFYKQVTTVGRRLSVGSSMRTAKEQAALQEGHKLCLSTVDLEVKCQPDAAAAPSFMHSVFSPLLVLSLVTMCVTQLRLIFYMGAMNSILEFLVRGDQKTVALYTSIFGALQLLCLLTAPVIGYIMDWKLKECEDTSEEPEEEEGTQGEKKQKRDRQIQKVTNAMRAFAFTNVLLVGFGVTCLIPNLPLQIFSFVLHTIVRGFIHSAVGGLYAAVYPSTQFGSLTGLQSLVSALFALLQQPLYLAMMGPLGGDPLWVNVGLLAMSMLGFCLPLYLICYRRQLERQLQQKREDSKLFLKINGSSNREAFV
T2 sequence (Q8BSM7 whole entry): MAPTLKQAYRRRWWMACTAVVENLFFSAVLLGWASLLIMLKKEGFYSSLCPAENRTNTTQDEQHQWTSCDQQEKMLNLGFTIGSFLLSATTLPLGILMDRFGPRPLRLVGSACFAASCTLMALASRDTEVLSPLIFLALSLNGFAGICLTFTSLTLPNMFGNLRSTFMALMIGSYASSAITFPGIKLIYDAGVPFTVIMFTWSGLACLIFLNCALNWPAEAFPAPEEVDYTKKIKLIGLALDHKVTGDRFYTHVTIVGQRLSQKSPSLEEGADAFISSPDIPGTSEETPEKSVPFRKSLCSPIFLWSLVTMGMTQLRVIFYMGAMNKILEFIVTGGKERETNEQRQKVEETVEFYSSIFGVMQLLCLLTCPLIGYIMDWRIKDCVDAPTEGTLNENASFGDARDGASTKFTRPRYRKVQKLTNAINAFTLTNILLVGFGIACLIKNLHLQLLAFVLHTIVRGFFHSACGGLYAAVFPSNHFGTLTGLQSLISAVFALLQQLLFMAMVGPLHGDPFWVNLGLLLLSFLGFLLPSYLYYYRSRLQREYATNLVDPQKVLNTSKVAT
T4 sequence (Q8N370 1-573 isoform Q8N370-3): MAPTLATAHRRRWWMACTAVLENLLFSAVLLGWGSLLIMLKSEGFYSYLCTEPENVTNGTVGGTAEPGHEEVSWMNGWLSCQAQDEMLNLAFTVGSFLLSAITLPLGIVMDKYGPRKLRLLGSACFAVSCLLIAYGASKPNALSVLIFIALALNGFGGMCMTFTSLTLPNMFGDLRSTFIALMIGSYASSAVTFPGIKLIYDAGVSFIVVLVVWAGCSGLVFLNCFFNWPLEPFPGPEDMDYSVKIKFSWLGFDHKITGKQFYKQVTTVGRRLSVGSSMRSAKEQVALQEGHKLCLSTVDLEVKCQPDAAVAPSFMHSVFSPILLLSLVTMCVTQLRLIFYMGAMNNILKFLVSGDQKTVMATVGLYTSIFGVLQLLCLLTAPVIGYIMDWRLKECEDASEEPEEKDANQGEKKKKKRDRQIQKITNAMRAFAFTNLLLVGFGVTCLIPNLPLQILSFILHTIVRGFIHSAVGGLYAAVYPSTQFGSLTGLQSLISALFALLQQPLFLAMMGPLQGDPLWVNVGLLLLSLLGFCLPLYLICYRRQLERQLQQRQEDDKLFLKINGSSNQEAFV

uptake of radiolabeled substrate into oocytes expressing human LAT3 (human LAT3 [1]; 14C-labeled substrate in place of 14C-leucine, Na+-free uptake solution, 10 minutes): a large amount of uptake
leucine uptake in oocytes expressing LAT3 compared with water-injected (human LAT3 [1]; [3]): significant augmentation
concentration dependence of leucine uptake (human LAT3) (human LAT3 [1]; leucine 1 to 3000 μM): concentration-dependent and saturable
efflux of 14C-leucine from oocytes expressing human LAT3 (human LAT3 [2]): significant efflux
leucine uptake in oocytes expressing mouse LAT3 compared with water-injected (mouse LAT3): significant augmentation
uptake of radiolabeled substrate into oocytes expressing mouse LAT4 (mouse LAT4; 14C-labeled substrate in place of 14C-leucine): a large amount of uptake
leucine uptake in oocytes expressing mouse LAT4 compared with water-injected (mouse LAT4; [3]): significant augmentation
concentration dependence of leucine uptake (mouse LAT4) (mouse LAT4; leucine 0.01 to 10 mM): concentration-dependent and saturable
leucine uptake in oocytes expressing human LAT4 compared with water-injected (human LAT4): significant augmentation
Structure (SMILES): CC(C)C[C@H](N)C(=O)O [L-leucine]
